DC50 and IC50 data for 15 compounds are collected here from patent EP4640686A1, “DEGRADER FOR DEGRADING BRD PROTEIN AND PHARMACEUTICAL COMPOSITION CONTAINING SAME” (Innocure Therapeutics, Inc., priority 2022, dated 2024).

Common to all, as to type: cell-based
In assay [1] the target is T1, BRD4-NUT (Homo sapiens, UniProt O60885+Q86Y26).
T1 construct: endogenous in cells; host or cells: RPMI2650
In words: BRD4-NUT protein degradation by western blotting in RPMI2650 cells (24 h treatment). The following applies: RPM12650, read-out: BRD4-NUT (DC50). How it is done:
(§1) The synthesized compounds were prepared with a 10 mM or 50 mM raw material solution dissolved in DMSO [dimethyl sulfoxide], and were diluted sequentially and treated. [RPMI2650] and [SNU2972] were cultivated under specific conditions.
(§2) To evaluate the resolution of PROTAC for BRD4 expressed in cells, cells were dispensed in a concentration of 5 X 10^5 cells/well in a 6-well plate, and the sample was treated for 24 hours. […] Protein expression was normalized based on the expression value of β or GAPDH, and protein expression in each sample was measured as % based on 100% of samples treated with 0.1% DMSO vehicle. Protein expression was quantified using Image J program. Change in protein expression volume by compound treatment (DC50: concentration of compounds where 50% protein expression inhibition is achieved) was calculated using the GraphicPad Prism 8.0 software.

Assay [2] has as its system RPMI2650. As to the kind of experiment: Cancer cell antiproliferative activity / cell viability in RPMI2650 cells (72 h treatment). How it is done: The human breast cancer cell line [MDA-MB-231] was cultured in RPMI medium with the addition of 10% fetal bovine serum, penicillin [100U/ml], and streptomycin [[…]]. The synthesized compounds were prepared with a 10 mM or 50 mM raw material solution dissolved in DMSO [dimethyl sulfoxide], and were diluted sequentially and treated. [RPMI2650] and [SNU2972] were cultivated under specific conditions.
To observe cell growth inhibition, cells were dispensed in a concentration of 5,000 cells/well in a 96-well plate, and samples prepared at various concentrations were treated for 72 hours. The IC50 value (the concentration of the compound achieving 50% cytostaticism) is the average value of the results of three independent measurements.

The target of assay [3] is BRD4 (Homo sapiens, UniProt O60885). In words: BRD4 protein degradation by western blotting in RPMI2650 cells (24 h treatment). Details: To evaluate the resolution of PROTAC for BRD4 expressed in cells; endogenous in cells; host or cells: RPMI2650. The following applies: RPM12650, read-out: BRD4 (DC50). The procedure: as §1, §2
(In general: In western blotting, separated proteins are transferred to a membrane and probed.)

[4] abbreviates: RPM12650, read-out: Cell Viatility (IC50).
[5] abbreviates: Homo sapiens, RPMI-2650, RPM12650, read-out: Cell Viatility (IC50).
Where [6] appears, read: Homo sapiens, RPMI-2650, 72 h, RPM12650, read-out: Cell Viatility (IC50).

Read-outs that look alike come from different tables or passages of the source. Some results are limits rather than exact numbers.

As for `CC[C@H]1c2nnc(C)n2-c2cnc(Nc3ccc(C(=O)NC4CCN(CCC5CCN(c6ccc(NC7CCC(=O)NC7=O)cc6F)CC5)CC4)cc3OC)nc2N1CC1CCCCC1` (stereo partly drawn) [ICT-0001562, 4-{[(4S)-5-(cyclohexylmethyl)-4-ethyl-1-methyl-4H,5H-[1,2,4]triazolo[4,3-f]pteridine-7-yl]amino}-N-{1-[2-(1-{4-[(2,6-dioxopiperidin-3-yl)amino]-2-fluorophenyl}piperidine-4-yl)ethyl]piperidine-4-yl}-3-methoxybenzamide], the DC50 in assay [1] and in assay [3] was > 1 µM throughout. Moreover, the IC50 (in general, the concentration that gives 50% inhibition) in assay [2] (setting [4]) lay in the range of 0.1 to 1 µM.

In the case of `CC[C@@H]1c2nnc(C)n2-c2cnc(Nc3ccc(C(=O)NC4CCN(C(=O)CN5CCN(c6ccc7c(=O)n(C8CCC(=O)NC8=O)nc(C)c7c6)CC5)CC4)cc3OC)nc2N1CC1CCCCC1` (stereo partly drawn) [ICT-0001563], the DC50 in assay [1] and in assay [3] was < 0.1 µM each time. The IC50 in assay [2] (setting [5]) is > 1 µM.

`CC[C@H]1c2nnc(C)n2-c2cnc(Nc3ccc(C(=O)NC4CCN(CCC5CCN(c6ccc(NC7CCC(=O)NC7=O)cc6F)CC5)CC4)cc3OC)nc2N1CC1CCCCC1` (stereo partly drawn) [ICT-0001564, 4-{[(4S)-5-(cyclohexylmethyl)-4-ethyl-1-methyl-4H,5H-[1,2,4]triazolo[4,3-f]pteridine-7-yl]amino}-N-{1-[2-(1-{4-[(2,6-dioxopiperidin-3-yl)amino]-2-fluorophenyl}piperidine-4-yl)ethyl]piperidine-4-yl}-3-methoxybenzamide]: the DC50 (usually the concentration giving 50% degradation) was > 1 µM in assay [1] and < 0.1 µM in assay [3]. Moreover, the IC50 in assay [2] (setting [4]) is > 1 µM.

Consider `CC[C@@H]1c2nnc(C)n2-c2cnc(Nc3ccc(C(=O)NC4CCN(c5ccc(NC6CCC(=O)NC6=O)cc5F)CC4)cc3OC)nc2N1CC1CCCCC1` (stereo partly drawn) [ICT-0001566, 4-{[(4R)-5-(cyclohexylmethyl)-4-ethyl-1-methyl-4H,5H-[1,2,4]triazolo[4,3-f]pteridine-7-yl]amino}-N-(1-{4-[(2,6-dioxopiperidine-3-yl)amino]-2-fluorophenyl}piperidine-4-yl)-3-methoxybenzamide], for which the DC50 in assay [1] and in assay [3] was < 0.1 µM each time. Moreover, the IC50 in assay [2] (setting [6]) was > 1 µM.

Consider `CC[C@@H]1c2nnc(C)n2-c2cnc(Nc3ccc(C(=O)NC4CCN(c5ccc6c(=O)n(C7CCC(=O)NC7=O)nc(C)c6c5)CC4)cc3OC)nc2N1CC1CCCCC1` (stereo partly drawn) [ICT-0001567, 4-{[(4R)-5-(cyclohexylmethyl)-4-ethyl-1-methyl-4H,5H-[1,2,4]triazolo[4,3-f]pteridine-7-yl]amino}-N-{1-[2-(2,6-dioxopiperidine-3-yl)-4-methyl-1-oxo-1,2-dihydroptalazine-6-yl]piperidine-4-yl}-3-methoxybenzamide], for which the DC50 in assay [1] and in assay [3] was > 1 µM each time. Moreover, the IC50 in assay [2] (setting [5]) was > 1 µM.

Turning to `CC[C@@H]1c2nnc(C)n2-c2cnc(Nc3ccc(C(=O)NC4CCN(CCCN5CCN(c6ccc7c(=O)n(C8CCC(=O)NC8=O)nc(C)c7c6)CC5)CC4)cc3OC)nc2N1CC1CCCCC1` (stereo partly drawn) [ICT-0001568, 4-{[(4R)-5-(cyclohexylmethyl)-4-ethyl-1-methyl-4H,5H-[1,2,4]triazolo[4,3-f]phteridine-7-yl]amino}-N-[1-(3-{4-[2-(2,6-dioxopiperidin-3-yl)-4-methyl-1-oxo-1,2-dihydroptalazine-6-yl}piperazine-1-il}piperidine-4-yl]piperidine-4-yl]-3-methoxybenzamide], the DC50 in assay [1] was > 1 µM; in assay [3], < 0.1 µM. Further, in assay [2] (setting [5]), the IC50 is > 1 µM.

As for `CC[C@@H]1c2nnc(C)n2-c2cnc(Nc3ccc(C(=O)NC4CCN(Cc5ccc(NC6CCC(=O)NC6=O)cc5)CC4)cc3OC)nc2N1CC1CCCCC1` (stereo partly drawn) [ICT-0001569, 4-{[(4R)-5-(cyclohexylmethyl)-4-ethyl-1-methyl-4H,5H-[1,2,4]triazolo[4,3-f]pteridine-7-yl]amino}-N-[1-({4-[(2,6-dioxopiperidin-3-yl)amino]phenyl}methyl)piperidine-4-yl]-3-methoxybenzamide], the DC50 in assay [1] and in assay [3] was > 1 µM throughout. Moreover, in assay [2] (setting [6]), the IC50 was > 1 µM.

Regarding `CC[C@@H]1c2nnc(C)n2-c2cnc(Nc3ccc(C(=O)NC4CCN(CCOCCOc5ccc(NC6CCC(=O)NC6=O)cc5F)CC4)cc3OC)nc2N1CC1CCCCC1` (stereo partly drawn) [ICT-0001570, 4-{[(4R)-5-(cyclohexylmethyl)-4-ethyl-1-methyl-4H,5H-[1,2,4]triazolo[4,3-f]pteridine-7-yl]amino}-N-{1-[2-(2-{4-[(2,6-dioxopiperidin-3-yl)amino]-2-fluorophenoxy}ethoxy)ethyl]piperidine-4-yl}-3-methoxybenzamide], the DC50 in assay [1] and in assay [3] was > 1 µM each time. For the same compound, the IC50 in assay [2] (setting [6]) is > 1 µM.

In the case of `CC[C@@H]1c2nnc(C)n2-c2cnc(Nc3ccc(C(=O)NC4CCN(C(=O)CCCCN5CCN(c6ccc(NC7CCC(=O)NC7=O)cc6F)CC5)CC4)cc3OC)nc2N1CC1CCCCC1` (stereo partly drawn) [ICT-0001571, 4-{[(4R)-5-(cyclohexylmethyl)-4-ethyl-1-methyl-4H,5H-[1,2,4]triazolo[4,3-f]pteridine-7-yl]amino}-N-{1-[5-(4-{4-[(2,6-dioxopiperidin-3-yl)amino]-2-fluorophenyl}piperazine-1-yl)pentanoyl]piperidine-4-yl}-3-methoxybenzamide], the DC50 in assay [1] and in assay [3] was > 1 µM each time. In assay [2] (setting [6]), the IC50 was > 1 µM.

As for `CC[C@@H]1c2nnc(C)n2-c2cnc(Nc3ccc(C(=O)NC4CCN(CCCN5CCN(c6ccc(NC7CCC(=O)NC7=O)cc6F)CC5)CC4)cc3OC)nc2N1CC1CCCCC1` (stereo partly drawn) [ICT-0001572, 4-{[(4R)-5-(cyclohexylmethyl)-4-ethyl-1-methyl-4H,5H-[1,2,4]triazolo[4,3-f]pteridine-7-yl]amino}-N-{1-[3-(4-{4-[(2,6-dioxopiperidin-3-yl)amino]-2-fluorophenyl}piperazine-1-yl)propyl]piperidine-4-yl}-3-methoxybenzamide], the DC50 in assay [1] and in assay [3] was > 1 µM in each case. Also, the concentration for half-maximal inhibition (IC50) in assay [2] (setting [6]) was > 1 µM.

On to `CC[C@@H]1c2nnc(C)n2-c2cnc(Nc3ccc(C(=O)N4CCN(c5ccc6c(=O)n(C7CCC(=O)NC7=O)nc(C)c6c5)CC4)cc3OC)nc2N1CC1CCCCC1` (stereo partly drawn) [ICT-0001576, 3-{6-[4-(4-{[(4R)-5-(cyclohexylmethyl)-4-ethyl-1-methyl-4H,5H-[1,2,4]triazolo[4,3-f]pteridine-7-yl]amino}-3-methoxybenzoyl)piperazine-1-yl]-4-methyl-1-oxo-1,2-dihydroptalazine-2-yl}piperidine-2,6-dione], for which the DC50 in assay [1] and in assay [3] was < 0.1 µM each time. The IC50 in assay [2] (setting [5]) was > 1 µM.

As to `CC[C@@H]1c2nnc(C)n2-c2cnc(Nc3ccc(C(=O)N4CCN(c5ccc6c(=O)n(C7CCC(=O)NC7=O)ncc6c5)CC4)cc3OC)nc2N1CC1CCCCC1` (stereo partly drawn) [ICT-0001577], the DC50 in assay [1] and in assay [3] was > 1 µM each time. Moreover, the IC50 in assay [2] (setting [5]) was > 1 µM.

For the compound `CC[C@@H]1c2nnc(C)n2-c2cnc(Nc3ccc(C(=O)NC4CCN(C(=O)CCN5CCN(c6ccc(NC7CCC(=O)NC7=O)cc6F)CC5)CC4)cc3OC)nc2N1CC1CCCCC1` (stereo partly drawn) [ICT-0001578, 4-{[(4R)-5-(cyclohexylmethyl)-4-ethyl-1-methyl-4H,5H-[1,2,4]triazolo[4,3-f]pteridine-7-yl]amino}-N-{1-[3-(4-{4-[(2,6-dioxopiperidin-3-yl)amino]-2-fluorophenyl}piperazine-1-yl)propanoyl]piperidine-4-yl}-3-methoxybenzamide], the DC50 in assay [1] and in assay [3] was > 1 µM in each case. Moreover, the IC50 in assay [2] (setting [6]) is 0.1 to 1 µM.

Consider `CC[C@@H]1c2nnc(C)n2-c2cnc(Nc3ccc(C(=O)N4CCN(CCNc5cccc6c(C)nn(C7CCC(=O)NC7=O)c(=O)c56)CC4)cc3OC)nc2N1CC1CCCCC1` (stereo partly drawn) [ICT-0001583, 3-(8-((2-(4-(4-(((R)-5-(cyclohexylmethyl)-4-ethyl-1-methyl-4,5-dihydro-[1,2,4]triazolo[4,3-f]pteridine-7-yl)amino)3-methoxybenzoyl)piperazine-1-yl)ethyl)amino)4-methyl-1-oxopthalazine-2(1H)-yl)piperidine-2,6-dione], for which the DC50 in assay [1] and in assay [3] was < 0.1 µM throughout. Further, in assay [2] (setting [5]), the IC50 was > 1 µM.

Regarding `CC[C@@H]1c2nnc(C)n2-c2cnc(Nc3ccc(C(=O)N4CCN(c5cccc6c(C)nn(C7CCC(=O)NC7=O)c(=O)c56)CC4)cc3OC)nc2N1CC1CCCCC1` (stereo partly drawn) [ICT-0001584, 3-(8-(4-(4-(((R)-5-(cyclohexylmethyl)-4-ethyl-1-methyl-4,5-dihydro-[1,2,4]triazolo[4,3-f]pteridine-7-yl)amino)-3-methoxybenzoyl)piperazine-1-yl)-4-methyl-1-oxopthalazine-2(1H)-yl)piperidine-2,6-dione], the DC50 in assay [1] and in assay [3] was < 0.1 µM throughout. Besides, in assay [2] (setting [5]), the IC50 was < 0.1 µM.
